Patent US6472413B2, “Heteroarylacryloylaminoalkyl-substituted benzenesulfonamide derivatives, their preparation, their use and pharmaceutical preparations comprising them” (Adventis Pharma Deutschland GmbH, priority 2000, dated 2002)

Assays:
hSUR1/hKir6.2 = hSUR1/hKir6.2 (Homo sapiens, UniProt Q09428+Q14654); assay: Action on hSUR1/hKir6.2-transfected CHO cells (hypoglycemic action), membrane potential by DIBAC4 fluorescence (FLIPR); type: cell-based; settings: concentration 10 μM; CHO cells activated with diaxozide; mean of at least 4 experiments
Text: Action on hSUR1/hKir6.2-transfected CHO Cells (Hypoglycemic Action)
The target organ of these compounds is the β cell of the pancreas where they block ATP-sensitive potassium channels and produce a release of the hypoglycemic hormone insulin by influencing the electrical potential of the cell membrane.
The extent of this depolarization of the cell membrane, which is caused by the compounds according to the invention, was investigated on CHO cells that were transfected with the cloned components of human pancreatic ATP-sensitive potassium channels, hSUR1, and hKir6.2, and activated by pretreatment with diaxozide, an opener of ATP-sensitive potassium channels. The potency of a compound with respect to the membrane potential of these transfected and activated CHO cells is a measure of the hypoglycemic potential of this compound.
On the day of measurement, the microtiter plates were washed three times with PBS (physiological buffer solution). In the last washing step, 90 μl remained in each well. The cells were then loaded with the fluorescent dye DIBAC4 (Molecular Probes, Portland, Oreg., USA) by addition of 90 μl of a 10-micromolar solution of DIBAC4 in PBS and of 90 μl of a 400 micromolar solution of diaxozide in PBS to each well. After an incubation time of 30 min at 37° C., the microtiter plates were then transferred to a fluorescent microtiter plate reader (FLIPR; Molecular Devices, Sunnyvale, Calif., USA). The cells were stimulated by means of an argon laser (Innova 90; Coherent, Santa Clara, Calif., USA) at a wavelength of 488 nm and the fluorescence emission was measured by means of a CCD camera. The measurement of the membrane potential began after 4 min by addition of 20 μl of a solution of the test compound or of the control solution to each well, the resulting fluorescence emission being measured every 20 seconds for a period of 20 min. The data shown are mean values of at least 4 experiments.

[1] = system: papillary muscle of the guinea pig; assay: Action potential duration on the papillary muscle of the guinea pig (relengthening of hypoxia-shortened APD90); type: cell-based; settings: concentration 2 μM, 60 min after addition, percentage in relation to the shortening caused by hypoxia
Text: Action Potential Duration on the Papillary Muscle of the Guinea Pig
ATP deficiency states, observed during ischemia in the cardiac muscle cell, lead to a shortening of the action potential duration (ATP=adenosine triphosphate). They are regarded as one of the causes of so-called reentry arrhythmias, which can cause sudden cardiac death. The opening of ATP-sensitive potassium channels by the lowering of the ATP level is regarded as the cause of this. For the measurement of the action potential on the papillary muscle of the guinea pig a standard microelectrode technique was employed.
Guinea pigs of both sexes were killed by a blow to the head, the hearts were removed, and the papillary muscles were separated out and suspended in an organ bath. The organ bath was rinsed with Ringer's solution (136 mmol/l of NaCl, 3.3 mmol/l of KCl, 2.5 mmol/l of CaCl2, 1.2 mmol/l of KH2PO4, 1.1 mmol/l of MgSO4, 5.0 mmol/l of glucose, 10.0 mmol/l of 1-(2-hydroxyethyl)piperazine-4-(2-ethanesulfonic acid) (HEPES), pH adjusted to 7.4 with NaOH) and aerated with 100% oxygen at a temperature of 37° C. The muscle was stimulated with square-wave pulses of 1 V and 1 ms duration and a frequency of 1 Hz by means of an electrode. The action potential was derived and recorded by means of a glass microelectrode inserted intracellularly, which was filled with 3 mol/l of KCl solution. The compound to be tested was added to the Ringer's solution in a concentration of 2 μmol/l. The action potential was amplified using an amplifier from Hugo Sachs (March-Hugstetten, Germany) and stored and analyzed by means of a computer. The duration of the action potential was determined at a degree of repolarization of 90% (APD90). After an equilibration time of 30 min, the action potential shortening was produced by rinsing the papillary muscle with a hypoxic NaCl solution. The glucose was removed here, the HEPES buffer replaced by PIPES buffer (piperazine-1,4-bis(2-ethanesulfonic acid)), the pH was adjusted to 6.5, and the aeration was carried out using 100% nitrogen. After a time of 60 min, this led to a marked shortening of the APD90. After this time, the test compound was added and the relengthening of the action potential recorded after a further 60 min. The compound-caused relengthening of the APD90 was calculated as a percentage, in relation to the shortening caused by hypoxia. The test compounds were added to the bath solution as stock solution in propanediol.
The following relengthenings of the APD90 values were observed.

[2] = system: chloroform-induced ventricular fibrillation in the mouse; assay: Chloroform-induced ventricular fibrillation in the mouse (action in the case of vagal dysfunction); type: in vivo; settings: 3 mg/kg i.p., 30 min before chloroform anesthesia, percentage of mice with ventricular fibrillation, untreated control 100%
Text: Chloroform-induced Ventricular Fibrillation in the Mouse (Action in the Case of Vagal Dysfunction)
Hypoactivity of the vagal nervous system leads to hyperactivity of the sympathetic nervous system. Damages to health that result from an inequilibrium of the autonomic nervous system when the dysfunction affects the heart include the weakening of the myocardial contractile force and fatal cardiac arrhythmias such as ventricular fibrillation. The action of the test compounds was investigated in the model of chloroform-induced ventricular fibrillation in the mouse (see J. W. Lawson, Antiarrhythmic activity of some isoquinoline derivatives determined by a rapid screening procedure in the mouse; J. Pharmacol. Exp. Ther. 160 (1968) 22).
The test compound was dissolved in a mixture of dimethyl sulfoxide (DMSO) and 10 percent sodium hydrogencarbonate solution and administered intraperitoneally (i.p.). The dose was 3 mg/kg. 30 min later, the mouse was anesthetized with chloroform in a beaker. As soon as respiratory arrest had occurred under deep anesthesia (toxic stage of anesthesia), the thorax of the animal was opened using a pair of scissors and the heartbeat was visually inspected. It can be determined here at a glance whether the heart is beating, fibrillating, or has stopped. The respiratory arrest induced by chloroform leads, via an absolute anoxia (oxygen deficiency) in combination with a direct stimulating action of chloroform on the sympathetic nervous system, to a strong stimulation of the sympathetic nervous system, which in turn, and in combination with the energy deficiency caused by oxygen deficiency, leads in the heart to the fatal arrhythmia, ventricular fibrillation. This toxic chloroform anesthesia led to ventricular fibrillation in 100% of the untreated mice (control). The percentage proportion of the mice with ventricular fibrillation in the individual test groups (consisting of n animals) is indicated as the fibrillation ratio.
The following fibrillation ratios were observed.

Sequence of hSUR1/hKir6.2 (Q09428 whole entry): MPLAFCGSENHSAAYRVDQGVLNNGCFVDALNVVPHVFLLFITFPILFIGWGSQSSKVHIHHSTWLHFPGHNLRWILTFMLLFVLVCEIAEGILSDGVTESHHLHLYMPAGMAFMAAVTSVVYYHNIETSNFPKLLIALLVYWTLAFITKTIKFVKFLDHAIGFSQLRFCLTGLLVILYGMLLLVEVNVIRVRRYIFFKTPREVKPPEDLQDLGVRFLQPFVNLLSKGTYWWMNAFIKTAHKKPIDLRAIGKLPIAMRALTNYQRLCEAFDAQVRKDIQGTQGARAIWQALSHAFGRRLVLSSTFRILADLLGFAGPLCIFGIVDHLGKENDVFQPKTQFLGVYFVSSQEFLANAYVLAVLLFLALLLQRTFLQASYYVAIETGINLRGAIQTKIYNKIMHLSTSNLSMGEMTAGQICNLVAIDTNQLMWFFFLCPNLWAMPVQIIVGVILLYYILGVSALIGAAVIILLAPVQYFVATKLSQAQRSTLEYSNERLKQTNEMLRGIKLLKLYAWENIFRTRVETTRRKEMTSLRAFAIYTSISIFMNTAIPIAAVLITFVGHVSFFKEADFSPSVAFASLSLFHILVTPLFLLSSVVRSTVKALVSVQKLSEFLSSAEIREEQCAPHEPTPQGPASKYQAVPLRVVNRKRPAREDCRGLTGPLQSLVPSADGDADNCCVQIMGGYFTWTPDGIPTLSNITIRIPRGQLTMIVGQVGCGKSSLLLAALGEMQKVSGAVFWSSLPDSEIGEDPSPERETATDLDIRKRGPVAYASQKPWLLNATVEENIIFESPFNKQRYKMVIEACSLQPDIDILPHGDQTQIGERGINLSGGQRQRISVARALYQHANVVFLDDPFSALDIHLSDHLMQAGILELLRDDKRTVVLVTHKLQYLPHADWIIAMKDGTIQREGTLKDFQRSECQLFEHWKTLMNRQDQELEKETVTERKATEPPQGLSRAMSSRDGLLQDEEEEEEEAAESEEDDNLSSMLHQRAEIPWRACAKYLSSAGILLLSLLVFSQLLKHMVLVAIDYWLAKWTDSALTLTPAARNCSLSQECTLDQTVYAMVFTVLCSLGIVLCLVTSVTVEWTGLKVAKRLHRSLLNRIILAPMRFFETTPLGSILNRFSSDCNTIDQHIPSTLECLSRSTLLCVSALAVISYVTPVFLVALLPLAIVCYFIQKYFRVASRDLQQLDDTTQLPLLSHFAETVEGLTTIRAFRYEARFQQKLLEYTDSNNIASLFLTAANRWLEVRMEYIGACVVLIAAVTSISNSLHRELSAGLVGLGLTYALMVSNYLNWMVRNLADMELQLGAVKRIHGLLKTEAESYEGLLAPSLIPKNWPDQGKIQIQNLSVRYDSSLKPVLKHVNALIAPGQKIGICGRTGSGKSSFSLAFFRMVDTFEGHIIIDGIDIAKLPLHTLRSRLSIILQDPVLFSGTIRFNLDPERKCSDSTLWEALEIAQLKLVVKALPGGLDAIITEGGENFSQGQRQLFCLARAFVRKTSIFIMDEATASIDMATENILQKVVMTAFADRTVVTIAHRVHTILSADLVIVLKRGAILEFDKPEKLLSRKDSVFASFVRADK
Sequence of hSUR1/hKir6.2 (Q14654 whole entry): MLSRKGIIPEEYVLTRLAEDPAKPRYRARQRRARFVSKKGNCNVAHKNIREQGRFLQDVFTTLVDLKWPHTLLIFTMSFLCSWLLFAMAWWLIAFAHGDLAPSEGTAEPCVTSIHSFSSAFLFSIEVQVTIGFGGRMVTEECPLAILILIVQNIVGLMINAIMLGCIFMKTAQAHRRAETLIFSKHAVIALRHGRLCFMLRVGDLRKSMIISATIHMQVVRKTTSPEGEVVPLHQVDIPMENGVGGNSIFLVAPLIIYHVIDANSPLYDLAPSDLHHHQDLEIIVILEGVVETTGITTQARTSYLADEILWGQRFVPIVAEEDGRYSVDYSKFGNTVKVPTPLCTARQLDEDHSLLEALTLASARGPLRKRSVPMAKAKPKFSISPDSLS

| Structure (SMILES) | Blockade hSUR1/hKiR6.2 (hSUR1/hKir6.2) [%] | Relengthening of the APD90 shortened by hypoxia [1] [%] | Fibrillation ratio (in %) [2] [%] | melting point [°C] |
| --- | --- | --- | --- | --- |
| CNC(=S)NS(=O)(=O)c1cc(CCNC(=O)/C=C/c2cccs2)ccc1OC [Example 1, 1-[5-(2-(trans-3-(2-Thienyl)acryloylamino)ethyl)-2-methoxyphenylsulfonyl]-3-methyl-thiourea] | 30.7 | 33 | – | – |
| CNC(=O)NS(=O)(=O)c1cc(CCNC(=O)/C=C/c2cccs2)ccc1OC [Example 3, 1-[5-(2-(trans-3-(2-Thienyl)acryloylamino)ethyl)-2-methoxyphenylsulfonyl]-3-methyl-urea] | 1.7 | – | 65 | – |
| COc1ccc(CCNC(=O)/C=C/c2cccs2)cc1S(=O)(=O)NC(=S)NC(C)C [Example 5, 1-[5-(2-(trans-3-(2-Thienyl)acryloylamino)ethyl)-2-methoxyphenyisulfonyl]-3-isopropyl-thiourea] | – | – | – | 96 |
| CNC(=S)NS(=O)(=O)c1cc(CCNC(=O)/C=C/c2cccs2)ccc1OCCOC [Example 6, 1-[5-(2-(trans-3-(2-Thienyl)acryloylamino)ethyl)-2-(2-methoxyethoxy)phenylsulfonyl]-3-methyl-thiourea] | – | – | – | 152 |
| CNC(=O)NS(=O)(=O)c1cc(CCNC(=O)/C=C/c2cccs2)ccc1OCCOC [Example 7, 1-[5-(2-(trans-3-(2-Thienyl)acryloylamino)ethyl)-2-(2-methoxyethoxy)phenylsulfonyl]-3-methyl-urea] | 8.1 | 39 | 80 | – |
| COCCOc1ccc(CCNC(=O)/C=C/c2cccs2)cc1S(=O)(=O)NC(=S)NC(C)C [Example 8, 1-[5-(2-(trans-3-(2-Thienyl)acryloylamino)ethyl)-2-(2-methoxyethoxy)phenylsulfonyl]-3-isopropyl-thiourea] | – | – | – | 101 |
| CCOc1ccc(CCNC(=O)/C=C/c2cccs2)cc1S(=O)(=O)NC(=S)NC [Example 9, 1-[5-(2-(trans-3-(2-Thienyl)acryloylamino)ethyl)-2-ethoxyphenylsulfonyl]-3-methyl-thiourea] | – | – | – | 74 |
| CCOCCOc1ccc(CCNC(=O)/C=C/c2cccs2)cc1S(=O)(=O)NC(=S)NC [Example 10, 1-[5-(2-(trans-3-(2-Thienyl)acryloylamino)ethyl)-2-(2-ethoxyethoxy)phenylsulfonyl]-3-methyl-thiourea] | – | 50 | – | – |
| CCOCCOc1ccc(CCNC(=O)/C=C/c2cccs2)cc1S(=O)(=O)NC(=O)NC [Example 11, 1-[5-(2-(trans-3-(2-Thienyl)acryloylamino)ethyl)-2-(2-ethoxyethoxy)phenylsulfonyl]-3-methyl-urea] | – | – | – | 65 |
| CNC(=S)NS(=O)(=O)c1cc(CCNC(=O)/C=C/c2cccs2)ccc1OCC1CCCO1 (stereo not drawn) [Example 14, 1-[5-(2-(trans-3-(2-Thienyl)acryloylamino)ethyl)-2-(tetrahydrofuran-2-ylmethoxy)phenylsulfonyl]-3-methyl-thiourea] | – | – | – | 78 |
| CNC(=S)NS(=O)(=O)c1cc(CCNC(=O)/C=C/c2cccs2)ccc1OCC1CCCCO1 (stereo not drawn) [Example 15, 1-[5-(2-(trans-3-(2-Thienyl)acryloylamino)ethyl)-2-(tetrahydropyran-2-ylmethoxy)phenylsulfonyl]-3-methyl-thiourea] | – | – | – | 80 |
| CNC(=S)NS(=O)(=O)c1cc(CCNC(=O)/C=C/c2cccs2)ccc1OCCOC(F)(F)F [Example 16, 1-[5-(2-(trans-3-(2-Thienyl)acryloylamino)ethyl)-2-(2-(trifluoromethoxy)ethoxy)phenylsulfonyl]-3-methyl-thiourea] | – | – | – | 161 to 163 |
| CNC(=S)NS(=O)(=O)c1cc(CCNC(=O)/C=C/c2cccs2)ccc1-c1ccco1 [Example 17, 1-[5-(2-(trans-3-(2-Thienyl)acryloylamino)ethyl)-2-(2-furyl)phenylsulfonyl]-3-methyl-thiourea] | – | – | – | 175 to 176 |
| CNC(=S)NS(=O)(=O)c1cc(CCNC(=O)/C=C/c2ccccn2)ccc1OC [Example 18, 1-[5-(2-(trans-3-(2-Pyridyl)acryloylamino)ethyl)-2-methoxyphenylsulfonyl]-3-methyl-thiourea] | – | – | – | 188 |
| COCCOc1ccc(CCNC(=O)/C=C/c2ccccn2)cc1S(=O)(=O)NC(=S)NC(C)C [Example 20, 1-[5-(2-(trans-3-(2-Pyridyl)acryloylamino)ethyl)-2-(2-methoxyethoxy)phenylsulfonyl]-3-isopropyl-thiourea] | 5.9 | 26 | 80 | – |
